In brackets after ≈: the same amount, converted by molar mass. Where two headings read alike, the source gives them in different places.
Key:
Format in all cases: cell-based
[1] = test system: Stenotrophomonas maltophilia; assay: MIC vs non-fermenting organisms: Stenotrophomonas maltophilia; conditions: Stenotrophomonas maltophilia, S. malt.; MIC key class; read-out: MIC
Procedure: (§1) Bacterial isolates were cultivated from −70° C. frozen stocks by two consecutive overnight passages at 35° C. in ambient air on 5% blood agar (Remel, Lenexa, Kans.). Clinical isolates tested were from a collection composed of isolates collected during clinical trials and recent clinical isolates obtained from various geographically diverse hospitals in the US. Quality control and primary panel strains were from the American Type Culture Collection (ATCC; Rockville, Md.), with the exception of P. aeruginosa PAO200, a strain with a deletion of the mexABoprM genes that was received from Dr. H. Schweizer.
(§2) Minimum Inhibitory Concentrations (MICs) were determined by the broth microdilution method in accordance with the National Committee for Clinical Laboratory Standards (NCCLS) guidelines. In brief, organism suspensions were are adjusted to a 0.5 McFarland standard to yield a final inoculum between 3×10^5 and 7×10^5 colony-forming units (CFU)/mL. Drug dilutions and inocula were made in sterile, cation adjusted Mueller-Hinton Broth (Remel). An inoculum volume of 100 μl was added to wells containing 100 μl of broth with 2-fold serial dilutions of drug. All inoculated microdilution trays were incubated in ambient air at 35° C. for 18-24 hours. Following incubation, the lowest concentration of the drug that prevented visible growth was recorded as the MIC.

E. coli 25922 = assay: MIC broth microdilution, standard panel: E. coli 25922; conditions: Escherichia coli, standard panel of organisms
Procedure: as §1, with “Schweizer. […] Strain Z61 (ATCC 35151) is also hypersusceptible to antibacterials. It is thought that the hypersusceptibility of this strain is the result of increased permeability of its outer membrane (Angus B L et al, Antimicrobial Agents and Chemotherapy 1982 21,299-309: Outer membrane permeability in Pseudomonas aeruginosa: Comparison of a wild-type with an antibacterial-supersusceptible mutant).” for “Schweizer.”
as §2, with “MIC. Performance of the assay was monitored by the use of laboratory quality-control strains against tobramycin, that has a defined MIC spectrum, in accordance with NCCLS guidelines.” for “MIC.”

P. aeruginosa 27853 = assay: MIC broth microdilution, standard panel: P. aeruginosa 27853; conditions: Pseudomonas aeruginosa, standard panel of organisms
Procedure: as §1, with “Schweizer. […] Strain Z61 (ATCC 35151) is also hypersusceptible to antibacterials. It is thought that the hypersusceptibility of this strain is the result of increased permeability of its outer membrane (Angus B L et al, Antimicrobial Agents and Chemotherapy 1982 21,299-309: Outer membrane permeability in Pseudomonas aeruginosa: Comparison of a wild-type with an antibacterial-supersusceptible mutant).” for “Schweizer.”
as §2, with “MIC. Performance of the assay was monitored by the use of laboratory quality-control strains against tobramycin, that has a defined MIC spectrum, in accordance with NCCLS guidelines.” for “MIC.”

S. aureus 29213 = assay: MIC broth microdilution, standard panel: S. aureus 29213; conditions: Staphylococcus aureus, standard panel of organisms
Procedure: as §1, with “Schweizer. […] Strain Z61 (ATCC 35151) is also hypersusceptible to antibacterials. It is thought that the hypersusceptibility of this strain is the result of increased permeability of its outer membrane (Angus B L et al, Antimicrobial Agents and Chemotherapy 1982 21,299-309: Outer membrane permeability in Pseudomonas aeruginosa: Comparison of a wild-type with an antibacterial-supersusceptible mutant).” for “Schweizer.”
as §2, with “MIC. Performance of the assay was monitored by the use of laboratory quality-control strains against tobramycin, that has a defined MIC spectrum, in accordance with NCCLS guidelines.” for “MIC.”

[2] = test system: Pseudomonas aeruginosa cystic fibrosis isolate 3206; assay: microbe, parasite or virus in culture
Procedure: as §1, §2

[3] = test system: Pseudomonas aeruginosa cystic fibrosis isolate 1145; assay: microbe, parasite or virus in culture
Procedure: as §1, §2

[4] = test system: Pseudomonas aeruginosa cystic fibrosis isolate 3198; assay: MIC vs cystic fibrosis isolate of P. aeruginosa 3198 (sensitive to most antibacterials); conditions: strain 3198, Sensitive, LpxC inhibitors, MIC key class
Procedure: as §1, §2

[5] = test system: P. aeruginosa PAO200 mexAB; assay: MIC broth microdilution, standard panel: P. aeruginosa PAO200 mexAB; conditions: Pseudomonas aeruginosa, PAO200MEXAB, read-out: MIC P. aeruginosa PAO200 mexAB
Procedure: as §1, with “Schweizer. […] Strain Z61 (ATCC 35151) is also hypersusceptible to antibacterials. It is thought that the hypersusceptibility of this strain is the result of increased permeability of its outer membrane (Angus B L et al, Antimicrobial Agents and Chemotherapy 1982 21,299-309: Outer membrane permeability in Pseudomonas aeruginosa: Comparison of a wild-type with an antibacterial-supersusceptible mutant).” for “Schweizer.”
as §2, with “MIC. Performance of the assay was monitored by the use of laboratory quality-control strains against tobramycin, that has a defined MIC spectrum, in accordance with NCCLS guidelines.” for “MIC.”

[6] = test system: Pseudomonas aeruginosa cystic fibrosis isolate 3232; assay: MIC vs cystic fibrosis isolate of P. aeruginosa 3232 (Ceftaz. R); conditions: strain 3232, Ceftaz. R, LpxC inhibitors, MIC key class
[7] = test system: Pseudomonas aeruginosa cystic fibrosis isolate 3224; assay: MIC vs cystic fibrosis isolate of P. aeruginosa 3224; conditions: strain 3224, Tobra R, LpxC inhibitors, MIC key class
Procedure: as §1, §2

[8] = strain 3206, MDR, LpxC inhibitors, MIC key class, read-out: MIC
[9] = strain 1145, MDR, LpxC inhibitors, MIC key class, read-out: MIC

SMILES	MIC [1]	MIC (E. coli 25922)	MIC (P. aeruginosa 27853)	MIC (S. aureus 29213)	MIC [2]	MIC [3]	MIC [4]	MIC [5]	MIC [6]	MIC [7]	MIC [2, 8]	MIC [3, 9]
C[C@@H](O)[C@H](NC(=O)c1ccc(C#Cc2ccccc2)cc1)C(=O)NO [Example 12, N-(1-(N-hydroxycarbamoyl)(1S,2R)-2-hydroxypropyl)[4-(2-phenylethynyl)phenyl]carboxamide]	< 6.25 µg/mL	< 6.25 µg/mL	< 6.25 µg/mL	> 50 µg/mL	< 6.25 µg/mL	< 6.25 µg/mL	< 6.25 µg/mL	< 6.25 µg/mL	< 6.25 µg/mL	< 6.25 µg/mL	–	–
C[C@@H](N)[C@H](NC(=O)c1ccc(C#Cc2ccccc2)cc1)C(=O)NO [Example 13]	6.25 to 50 µg/mL (≈ 18.5 to 148 µM)	< 6.25 µg/mL	< 6.25 µg/mL	> 50 µg/mL	–	–	< 6.25 µg/mL	< 6.25 µg/mL	< 6.25 µg/mL	< 6.25 µg/mL	< 6.25 µg/mL	< 6.25 µg/mL
C[C@@H](O)[C@H](NC(=O)c1ccc(C#CC#Cc2ccccc2)cc1)C(=O)NO [Example 19, N-(1-(N-hydroxycarbamoyl)(1S,2R)-2-hydroxypropyl)[4-(4-phenylbuta-1,3-diynyl)phenyl]carboxamide]	6.25 to 50 µg/mL (≈ 17.2 to 138 µM)	< 6.25 µg/mL	< 6.25 µg/mL	6.25 to 50 µg/mL (≈ 17.2 to 138 µM)	–	–	< 6.25 µg/mL	< 6.25 µg/mL	< 6.25 µg/mL	< 6.25 µg/mL	< 6.25 µg/mL	< 6.25 µg/mL
CCc1ccc(-c2ccc(C(=O)N[C@@H](CN)C(=O)NO)cc2)cc1 [Example 280, N-[(1S)-1-(aminomethyl)-2-(hydroxyamino)-2-oxoethyl]-4′-ethyl-1,1-biphenyl-4-carboxamide]	6.25 to 50 µg/mL (≈ 19.1 to 153 µM)	< 6.25 µg/mL	< 6.25 µg/mL	> 50 µg/mL	–	–	< 6.25 µg/mL	< 6.25 µg/mL	< 6.25 µg/mL	< 6.25 µg/mL	< 6.25 µg/mL	< 6.25 µg/mL
C[C@@H](O)[C@H](NC(=O)c1ccc(-c2ccc(Br)cc2)cc1)C(=O)NO [Example 315, 4′-bromo-N-{(1S,2R)-2-hydroxy-1-[(hydroxyamino)carbonyl]propyl}-1,1′-biphenyl-4-carboxamide]	< 6.25 µg/mL	< 6.25 µg/mL	< 6.25 µg/mL	> 50 µg/mL	–	–	< 6.25 µg/mL	< 6.25 µg/mL	< 6.25 µg/mL	< 6.25 µg/mL	< 6.25 µg/mL	< 6.25 µg/mL
NC[C@H](NC(=O)c1ccc(C#CC#Cc2ccccc2)cc1)C(=O)NO [Example 481, N-[(1S)-1-(aminomethyl)-2-(hydroxyamino)-2-oxoethyl]-4-(4-phenylbuta-1,3-diynyl)benzamide]	> 50 µg/mL	< 6.25 µg/mL	< 6.25 µg/mL	> 50 µg/mL	–	–	< 6.25 µg/mL	< 6.25 µg/mL	< 6.25 µg/mL	< 6.25 µg/mL	< 6.25 µg/mL	< 6.25 µg/mL
NC[C@H](NC(=O)c1ccc(C#Cc2ccc(NC(=O)CNC3CC3)cc2)cc1)C(=O)NO [Example 516, N-[(1S)-1-(aminomethyl)-2-(hydroxyamino)-2-oxoethyl]-4-[(4-{[(cyclopropylamino)acetyl]amino}phenyl)ethynyl]benzamide]	> 50 µg/mL	< 6.25 µg/mL	< 6.25 µg/mL	> 50 µg/mL	–	–	< 6.25 µg/mL	< 6.25 µg/mL	< 6.25 µg/mL	< 6.25 µg/mL	< 6.25 µg/mL	< 6.25 µg/mL
C[C@@H](O)[C@H](NC(=O)c1ccc(C#CC#Cc2ccc(NC(=O)CNc3ccccc3)cc2)cc1)C(=O)NO [Example 777, N-{(1S,2R)-2-hydroxy-1-[(hydroxyamino)carbonyl]propyl}-4-[4-(4-{[(phenylamino)acetyl]amino}phenyl)buta-1,3-diynyl]benzamide]	> 50 µg/mL	< 6.25 µg/mL	< 6.25 µg/mL	> 50 µg/mL	–	–	< 6.25 µg/mL	< 6.25 µg/mL	< 6.25 µg/mL	< 6.25 µg/mL	< 6.25 µg/mL	< 6.25 µg/mL
CCc1ccc(-c2ccc(C(=O)N[C@H](C(=O)NO)[C@@H](C)N)cc2)cc1 [Example 779, N-{(1S,2R)-2-amino-1-[(hydroxyamino)carbonyl]propyl)-4′-ethyl-1,1′-biphenyl-4-carboxamide]	6.25 to 50 µg/mL (≈ 18.3 to 146 µM)	< 6.25 µg/mL	< 6.25 µg/mL	> 50 µg/mL	–	–	< 6.25 µg/mL	< 6.25 µg/mL	< 6.25 µg/mL	< 6.25 µg/mL	< 6.25 µg/mL	< 6.25 µg/mL
C[C@@H](O)[C@H](NC(=O)c1ccc(C#CC#Cc2ccc(NC(=O)CNc3ccccn3)cc2)cc1)C(=O)NO [Example 801, N-{(1S,2R)-2-hydroxy-1-[(hydroxyamino)carbonyl]propyl}-4-[4-(4-{[(pyridin-2-ylamino)acetyl]amino}phenyl)buta-1,3-diynyl]benzamide]	> 50 µg/mL	< 6.25 µg/mL	< 6.25 µg/mL	> 50 µg/mL	–	–	< 6.25 µg/mL	< 6.25 µg/mL	< 6.25 µg/mL	< 6.25 µg/mL	< 6.25 µg/mL	< 6.25 µg/mL
